Assay results: patent publication US20090042894A1, “NOVEL SPECIES OF ACROCARPOSPORA, A METHOD OF PREPARING IODININ, AND THE USES OF IODININ” (FOOD INDUSTRY RESEARCH AND DEVELOPMENT INSTITUTE, priority 2007, published 2009)

Experiments:
Type in all cases: cell-based
Settings in all cases: iodinin 10 μg/ml, 72 hours
[1] = tested on: AGS (Human gastric adenocarcinoma); assay: MTT assay, cytotoxic effect on AGS cells
Protocol: (§1) Cell growth inhibitory effects were determined by an MTT assay after treating the cell lines with 2, 5, and 10 μg/ml of iodinin for 72 hours. Mean±SE of four independent experiments are shown. The cytotoxic activity of the compound iodinin was tested in vitro in MRC-5, AGS, HeLa, HepG2 and MCF-7 cell lines.
(§2) MRC-5 (embryonal lung, normal, human, BCRC60023), AGS (Human gastric adenocarcinoma, BCRC 60102), HeLa (Human cervical epithelioid carcinoma, BCRC 60005), HepG2 (Human hepatoblastoma, BCRC 60177), and MCF7 (human breast adenocarcinoma, BCRC 60436) were purchased from BCRC, Food Industry Research and Development Institute, Taiwan. […]
(§3) The cytotoxic activities of the compound, iodinin, against all cell lines were assayed by a modified MTT [3-(4,5-dimethylthiazole-2-yl)-2,5-diphenyltetrazolium bromide] […] After 3 days of incubation, the cell numbers for each of the cell lines were determined by the following MTT assay: 20 μl of 1 mg/ml of MTT were added to each well of the plates, and the plates were then incubated at 37° C. for 5 hours. Formazan crystals were redissolved in 100 μl of DMSO (Merck) for 10 minutes via shaking, and the plates were read immediately on an ELISA reader (Bio-Tek) at a wavelength of 540 nm (Mosmann, 1983).

[2] = tested on: MCF-7 (human breast adenocarcinoma); assay: MTT assay, cytotoxic effect on MCF-7 cells
Protocol: as §1, §2, §3

[3] = tested on: MRC-5 (embryonal lung, normal, human); assay: MTT assay, cytotoxic effect on MRC-5 cells
Protocol: as §1, §2, §3

[4] = tested on: HepG2 (Human hepatoblastoma); assay: MTT assay, cytotoxic effect on HepG2 cells
Protocol: as §1, §2, §3

[5] = tested on: HeLa (Human cervical epithelioid carcinoma); assay: MTT assay, cytotoxic effect on HeLa cells
Protocol: as §1, §2, §3

[O-][n+]1c2cccc(O)c2[n+]([O-])c2cccc(O)c21 [iodinin, 1,6-phenazinediol 5,10-dioxide]
percentage of cell survival [1]: 8%
percentage of cell survival [2]: 29%
percentage of cell survival [3]: 47%
percentage of cell survival [4]: 40%
percentage of cell survival [5]: 26%
